Test results from patent US20190343908A1, “Therapeutic Combination for the Treatment of Cancer” (Nerium Biotechnology Inc., priority 2011, published 2019).

Key:
Assay type in all cases: cell-based
[1] = test system: PC3 (human prostate cancer); assay: Methyl-Tetrazolium viability assay, PC3; set-up: key: absorbance at 570 nm (optical density)
Text: The Methyl-Tetrazolium dye assay measures the activity of enzymes in mitochondria. The dye precursor is taken up by cells, where it undergoes reduction to the purple formazan. It measures only the mitochondrial activity and, thus, it is not always a reliable indication of whether the cells themselves are alive or dead, since even a recently dead cell has […] enzyme activity in mitochondria. Intracellular glucose concentration, pH, and time before assay all affect the measurements.
(§1) The Methyl Tetrazolium, Sulforhodamine B, and Crystal Violet assays were used to assess cell viabilities. The incubation times were 24 hours, 48 hours, and 72 hours. The Nerium oleander extract Anvirzel™ (a hot water extract of oleander obtained from Salud Integral, Honduras) was tested in concentrations ranging from 0.01 ng/mL to 10 ng/mL.
(§2) Cells were detached by trypsinization (Trypsin-0.25% EDTA, Invitrogen, 25200-072) during the logarithmic phase of culture growth and plated in 96-well plates (18.000 cells/well) (Corning, Costar 359) in a final volume of 200 μl of medium per well. […] The absorbance was measured after 24 hours, 48 hours, and 72 hours of incubation.
For the Methyl-Tetrazolium assay, the dye (Sigma, M2128; 5 mg/mL, diluted in phosphate-buffered saline) was added to each well and plates were incubated for 3 hours at 37° C. After the end of the incubation period, the medium was discarded and the cells were rinsed with phosphate-buffered saline. Finally, the formazan crystals were dissolved in dimethylsulphoxide (Sigma, D4540).
(§3) The optical density of each plate was measured on a μQuant spectrophotometer and the data were analyzed with Gen5 software (μQuant Biomolecular Spectrophotometer MQX200 and Gen5™ Microplate Data Collection & Analysis software, BioTek® Instruments. Inc, April 2008). Absorbance was measured at 570 nm for all assays and a second wavelength was measured in order to subtract noise. For the Methyl-Tetrazolium assay this second wavelength was 630 nm and for the Sulforhodamine B and Crystal Violet assays it was 690 nm.

[2] = test system: PC3 (human prostate cancer); assay: Crystal Violet viability assay, PC3
Text: (§4) Three different viability assays were chosen to complement each other and yielded results dependent on concentration and cell line: the Methyl Tetrazolium dye assay, the Sulforhodamine B fluorescent dye assay, and the Crystal Violet dye assay.
(§5) The Sulforhodamine B and Crystal Violet assays provide information about protein and were used to complement the Methyl-Tetrazolium dye assay. […] It is used for the quantification of cellular proteins of cultured cells. The assay using Crystal Violet, a dye that binds electrostatically to proteins and stains DNA, provides a reliable, simple assay for measuring viability of cells.
as §1, §2
(§6) For the Crystal Violet assay, the medium was removed from the 96-well plates, the plates rinsed with PBS (Sigma, P3813) and then the cells were […] by the addition of 10% formalin (MERCK, 1.04003.2500) for 20 minutes at RT. Formalin was removed and 0.25% aqueous crystal violet (Sigma, HT901), dissolved in water, was added for 10 minutes at RT. Unbound Crystal Violet was rinsed by washing with water and finally 33% acetic acid was added to dissolve the dye.
as §3

[3] = test system: T47D (human breast cancer); assay: Crystal Violet viability assay, T47D; set-up: key: absorbance at 570 nm (crystal violet), background wavelength subtracted
Text: as §4, §5, §1, §2, §6, §3

[4] = PC3 Run 1, 24 h, 0.1 μg/ml CDDP
[5] = PC3 Run 1, 24 h, 100 μg/ml CDDP
[6] = PC3 Run 1, 48 h, 0.1 μg/ml CDDP
[7] = PC3 Run 1, 48 h, 100 μg/ml CDDP
[8] = PC3 Run 1, 72 h, 0.1 μg/ml CDDP
[9] = PC3 Run 1, 72 h, 100 μg/ml CDDP
[10] = PC3 Run 2, 24 h, 0.1 μg/ml CDDP
[11] = PC3 Run 2, 24 h, 100 μg/ml CDDP
[12] = PC3 Run 2, 48 h, 0.1 μg/ml CDDP
[13] = PC3 Run 2, 48 h, 100 μg/ml CDDP
[14] = PC3 Run 2, 72 h, 0.1 μg/ml CDDP
[15] = PC3 Run 2, 72 h, 100 μg/ml CDDP
[16] = PC3 Run 3, 24 h, 0.1 μg/ml CDDP
[17] = PC3 Run 3, 24 h, 100 μg/ml CDDP
[18] = PC3 Run 3, 48 h, 100 μg/ml CDDP
[19] = PC3 Run 3, 72 h, 0.1 μg/ml CDDP
[20] = PC3 Run 3, 72 h, 100 μg/ml CDDP

## N.N.[Cl][Pt][Cl] [cisplatin]
[1]; [4]
  MTT Average: 0.137
[1]; PC3 Run 1, 24 h, 1 μg/ml CDDP
  MTT Average: 0.049
[1]; PC3 Run 1, 24 h, 10 μg/ml CDDP
  MTT Average: 0.091
[1]; [5]
  MTT Average: 0.053
[1]; [6]
  MTT Average: 0.162
[1]; PC3 Run 1, 48 h, 1 μg/ml CDDP
  MTT Average: 0.027
[1]; PC3 Run 1, 48 h, 10 μg/ml CDDP
  MTT Average: 0.064
[1]; [7]
  MTT Average: 0.029
[1]; [8]
  MTT Average: 0.188
[1]; PC3 Run 1, 72 h, 1 μg/ml CDDP
  MTT Average: 0.034
[1]; PC3 Run 1, 72 h, 10 μg/ml CDDP
  MTT Average: 0.044
[1]; [9]
  MTT Average: 0.029
[1]; [10]
  MTT Average: 0.072
[1]; PC3 Run 2, 24 h, 1 μg/ml CDDP
  MTT Average: 0.04
[1]; PC3 Run 2, 24 h, 10 μg/ml CDDP
  MTT Average: 0.079
[1]; [11]
  MTT Average: 0.052
[1]; [12]
  MTT Average: 0.195
[1]; PC3 Run 2, 48 h, 1 μg/ml CDDP
  MTT Average: 0.051
[1]; PC3 Run 2, 48 h, 10 μg/ml CDDP
  MTT Average: 0.074
[1]; [13]
  MTT Average: 0.047
[1]; [14]
  MTT Average: 0.223
[1]; PC3 Run 2, 72 h, 1 μg/ml CDDP
  MTT Average: 0.039
[1]; PC3 Run 2, 72 h, 10 μg/ml CDDP
  MTT Average: 0.068
[1]; [15]
  MTT Average: 0.037
[1]; [16]
  MTT Average: 0.088
[1]; PC3 Run 3, 24 h, 1 μg/ml CDDP
  MTT Average: 0.041
[1]; PC3 Run 3, 24 h, 10 μg/ml CDDP
  MTT Average: 0.096
[1]; [17]
  MTT Average: 0.053
[1]; PC3 Run 3, 48 h, 1 μg/ml CDDP
  MTT Average: 0.033
[1]; PC3 Run 3, 48 h, 10 μg/ml CDDP
  MTT Average: 0.062
[1]; [18]
  MTT Average: 0.03
[1]; [19]
  MTT Average: 0.151
[1]; PC3 Run 3, 72 h, 1 μg/ml CDDP
  MTT Average: 0.027
[1]; PC3 Run 3, 72 h, 10 μg/ml CDDP
  MTT Average: 0.057
[1]; [20]
  MTT Average: 0.028
[2]; [4]
  CVE Average: 0.73
[2]; PC3 Run 1, 24 h, 1 μg/ml CDDP
  CVE Average: 0.368
[2]; PC3 Run 1, 24 h, 10 μg/ml CDDP
  CVE Average: 0.548
[2]; [5]
  CVE Average: 0.337
[2]; [6]
  CVE Average: 0.938
[2]; PC3 Run 1, 48 h, 1 μg/ml CDDP
  CVE Average: 0.483
[2]; PC3 Run 1, 48 h, 10 μg/ml CDDP
  CVE Average: 0.706
[2]; [7]
  CVE Average: 0.619
[2]; [8]
  CVE Average: 1.091
[2]; PC3 Run 1, 72 h, 1 μg/ml CDDP
  CVE Average: 0.415
[2]; PC3 Run 1, 72 h, 10 μg/ml CDDP
  CVE Average: 0.64
[2]; [9]
  CVE Average: 0.421
[2]; [10]
  CVE Average: 0.489
[2]; PC3 Run 2, 24 h, 1 μg/ml CDDP
  CVE Average: 0.238
[2]; PC3 Run 2, 24 h, 10 μg/ml CDDP
  CVE Average: 0.498
[2]; [11]
  CVE Average: 0.309
[2]; [12]
  CVE Average: 0.714
[2]; PC3 Run 2, 48 h, 1 μg/ml CDDP
  CVE Average: 0.393
[2]; PC3 Run 2, 48 h, 10 μg/ml CDDP
  CVE Average: 0.694
[2]; [13]
  CVE Average: 0.419
[2]; [14]
  CVE Average: 0.76
[2]; PC3 Run 2, 72 h, 1 μg/ml CDDP
  CVE Average: 0.284
[2]; PC3 Run 2, 72 h, 10 μg/ml CDDP
  CVE Average: 0.526
[2]; [15]
  CVE Average: 0.316
[2]; [16]
  CVE Average: 0.653
[2]; PC3 Run 3, 24 h, 1 μg/ml CDDP
  CVE Average: 0.551
[2]; PC3 Run 3, 24 h, 10 μg/ml CDDP
  CVE Average: 0.638
[2]; [17]
  CVE Average: 0.301
[2]; PC3 Run 3, 48 h, 0.1 μg/ml CDDP
  CVE Average: 0.599
[2]; PC3 Run 3, 48 h, 1 μg/ml CDDP
  CVE Average: 0.4
[2]; PC3 Run 3, 48 h, 10 μg/ml CDDP
  CVE Average: 0.599
[2]; [18]
  CVE Average: 0.367
[2]; [19]
  CVE Average: 0.927
[2]; PC3 Run 3, 72 h, 1 μg/ml CDDP
  CVE Average: 1.001
[2]; PC3 Run 3, 72 h, 10 μg/ml CDDP
  CVE Average: 0.666
[2]; [20]
  CVE Average: 0.282
[3]; T47D Run 1, 24 h, 0.1 μg/ml CDDP
  CVE Average: 0.64
[3]; T47D Run 1, 24 h, 10 μg/ml CDDP
  CVE Average: 0.417
[3]; T47D Run 1, 48 h, 0.1 μg/ml CDDP
  CVE Average: 0.67
[3]; T47D Run 1, 48 h, 1 μg/ml CDDP
  CVE Average: 0.369
[3]; T47D Run 1, 48 h, 10 μg/ml CDDP
  CVE Average: 0.518
[3]; T47D Run 1, 48 h, 100 μg/ml CDDP
  CVE Average: 0.319
[3]; T47D Run 1, 72 h, 0.1 μg/ml CDDP
  CVE Average: 0.654
[3]; T47D Run 1, 72 h, 1 μg/ml CDDP
  CVE Average: 0.347
[3]; T47D Run 1, 72 h, 10 μg/ml CDDP
  CVE Average: 0.34
[3]; T47D Run 1, 72 h, 100 μg/ml CDDP
  CVE Average: 0.293
[3]; T47D Run 2, 24 h, 1 μg/ml CDDP
  CVE Average: 0.385
[3]; T47D Run 2, 24 h, 10 μg/ml CDDP
  CVE Average: 0.597
[3]; T47D Run 2, 24 h, 100 μg/ml CDDP
  CVE Average: 0.317
[3]; T47D Run 2, 48 h, 0.1 μg/ml CDDP
  CVE Average: 0.45
[3]; T47D Run 2, 48 h, 1 μg/ml CDDP
  CVE Average: 0.223
[3]; T47D Run 2, 48 h, 10 μg/ml CDDP
  CVE Average: 0.315
[3]; T47D Run 2, 72 h, 0.1 μg/ml CDDP
  CVE Average: 1.124
[3]; T47D Run 2, 72 h, 1 μg/ml CDDP
  CVE Average: 0.33
[3]; T47D Run 2, 72 h, 10 μg/ml CDDP
  CVE Average: 0.334
[3]; T47D Run 2, 72 h, 100 μg/ml CDDP
  CVE Average: 0.381
[3]; T47D Run 3, 24 h, 1 μg/ml CDDP
  CVE Average: 0.4
[3]; T47D Run 3, 24 h, 10 μg/ml CDDP
  CVE Average: 0.488
[3]; T47D Run 3, 24 h, 100 μg/ml CDDP
  CVE Average: 0.385
[3]; T47D Run 3, 48 h, 0.1 μg/ml CDDP
  CVE Average: 0.778
[3]; T47D Run 3, 48 h, 1 μg/ml CDDP
  CVE Average: 0.435
[3]; T47D Run 3, 48 h, 100 μg/ml CDDP
  CVE Average: 0.544
[3]; T47D Run 3, 72 h, 0.1 μg/ml CDDP
  CVE Average: 0.722
[3]; T47D Run 3, 72 h, 1 μg/ml CDDP
  CVE Average: 0.223
[3]; T47D Run 3, 72 h, 10 μg/ml CDDP
  CVE Average: 0.31
[3]; T47D Run 3, 72 h, 100 μg/ml CDDP
  CVE Average: 0.22
